Assay results as given in PubChem BioAssay AID2060601 (Molecular Pharmacology Branch, DTP, NCI, 2025).

Tested on: 874868-142-R-J2-PDC complex spheroids, growth % test/control
Assay: Anticancer human tumor 874868-142-R-J2-PDC patient-derived head and neck squamous carcinoma cell line growth inhibition [CLK]
Conditions: for IC50: curve of first compound; for viability, T/C: stronger effect = lower value; active = viability on the fitted dose curve at most 10% of control; inactive = the rest
Procedure, shortened: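 Patient-derived tumor cells grown as complex spheroids with HUVEC endothelial cells and mesenchymal stem cells, treated with drug combinations. Concentrations descend in half-log steps from near clinical Cmax, or from 10 microM if Cmax unknown.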

[1] = second compound 0.0316 µM, first compound 0.00316 µM
[2] = second compound 0.0316 µM, first compound 0.01 µM
[3] = second compound 0.0316 µM, first compound 0.0316 µM
[4] = second compound 0.0316 µM, first compound 0.1 µM
[5] = second compound 0.1 µM, first compound 0.00316 µM
[6] = second compound 0.1 µM, first compound 0.01 µM
[7] = second compound 0.1 µM, first compound 0.0316 µM
[8] = second compound 0.1 µM, first compound 0.1 µM
[9] = second compound 0.316 µM, first compound 0.00316 µM
[10] = second compound 0.316 µM, first compound 0.01 µM
[11] = second compound 0.316 µM, first compound 0.0316 µM
[12] = second compound 0.316 µM, first compound 0.1 µM
[13] = second compound 1 µM, first compound 0.00316 µM
[14] = second compound 1 µM, first compound 0.01 µM
[15] = second compound 1 µM, first compound 0.0316 µM
[16] = second compound 1 µM, first compound 0.1 µM
[17] = second compound 3.16 µM, first compound 0.00316 µM
[18] = second compound 3.16 µM, first compound 0.01 µM
[19] = second compound 3.16 µM, first compound 0.0316 µM
[20] = second compound 3.16 µM, first compound 0.1 µM
[21] = second compound 10 µM, first compound 0.00316 µM
[22] = second compound 10 µM, first compound 0.01 µM
[23] = second compound 10 µM, first compound 0.0316 µM
[24] = second compound 10 µM, first compound 0.1 µM
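Also: spheroids exposed to the compounds for 7 days.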
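For viability, T/C in this document: 100% = DMSO vehicle control viability.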

CCc1c2c(nc3ccc(O)cc13)-c1cc3c(c(=O)n1C2)COC(=O)[C@]3(O)CC + CN1CCN(c2cc(C(=O)Nc3cc4cc(-c5cnn(C)c5)ccc4cn3)ccn2)CC1
< 3.16 nM: IC50 (second compound 0.0316 µM) | IC50 (second compound 0.1 µM) | IC50 (second compound 0.316 µM) | IC50 (second compound 1 µM) | IC50 (second compound 3.16 µM) | IC50 (second compound 10 µM)
inactive: viability, T/C [1] 40.3% | viability, T/C [2] 37.1% | viability, T/C [3] 26.8% | viability, T/C [4] 16.6% | viability, T/C [5] 31.4% | viability, T/C [6] 24.2% | viability, T/C [7] 11.6% | viability, T/C [9] 12.2%
active: viability, T/C (second compound 0.0316 µM, first compound 0.316 µM) 7.13% | viability, T/C (second compound 0.0316 µM, first compound 1 µM) 1.61% | viability, T/C [8] 8.69% | viability, T/C (second compound 0.1 µM, first compound 0.316 µM) 2.29% | viability, T/C (second compound 0.1 µM, first compound 1 µM) 0.34% | viability, T/C [10] 7.89% | viability, T/C [11] 5.11% | viability, T/C [12] 1.25% | viability, T/C (second compound 0.316 µM, first compound 0.316 µM) 0.46% | viability, T/C (second compound 0.316 µM, first compound 1 µM) 0.22% | viability, T/C [13] 0.28% | viability, T/C [14] 0.16% | viability, T/C [15] 0.25% | viability, T/C [16] 0.19% | viability, T/C (second compound 1 µM, first compound 0.316 µM) 0.39% | viability, T/C (second compound 1 µM, first compound 1 µM) 0.11% | viability, T/C [17] 0.18% | viability, T/C [18] 0.16% | viability, T/C [19] 0.32% | viability, T/C [20] 0.27% | viability, T/C (second compound 3.16 µM, first compound 0.316 µM) 0.19% | viability, T/C (second compound 3.16 µM, first compound 1 µM) 0.11% | viability, T/C [21] 0.07% | viability, T/C [22] 3.98% | viability, T/C [23] 0.4% | viability, T/C [24] 0.15% | viability, T/C (second compound 10 µM, first compound 0.316 µM) 0.19% | viability, T/C (second compound 10 µM, first compound 1 µM) 0.19%

Cn1ncnc1[C@H]1c2n[nH]c(=O)c3cc(F)cc(c23)N[C@@H]1c1ccc(F)cc1 + CN1CCN(c2cc(C(=O)Nc3cc4cc(-c5cnn(C)c5)ccc4cn3)ccn2)CC1
91.4 nM: IC50 (second compound 0.1 µM)
inactive: viability, T/C (second compound 0.0316 µM, first compound 0.000316 µM) 99.4% | viability, T/C (second compound 0.0316 µM, first compound 0.001 µM) 83.8% | viability, T/C [1] 80% | viability, T/C [2] 89.2% | viability, T/C [3] 62.2% | viability, T/C [4] 68.2% | viability, T/C (second compound 0.1 µM, first compound 0.000316 µM) 83.9% | viability, T/C (second compound 0.1 µM, first compound 0.001 µM) 70.3% | viability, T/C [5] 69.8% | viability, T/C [6] 66.6% | viability, T/C [7] 43.8% | viability, T/C [8] 53.8% | viability, T/C (second compound 0.316 µM, first compound 0.000316 µM) 17.1% | viability, T/C (second compound 0.316 µM, first compound 0.001 µM) 17.7% | viability, T/C [9] 16.2% | viability, T/C [10] 11.9% | viability, T/C [11] 18.8% | viability, T/C [12] 15.2%
active: viability, T/C (second compound 1 µM, first compound 0.000316 µM) 0.34% | viability, T/C (second compound 1 µM, first compound 0.001 µM) 0.36% | viability, T/C [13] 0.3% | viability, T/C [14] 0.19% | viability, T/C [15] 0.26% | viability, T/C [16] 0.38% | viability, T/C (second compound 3.16 µM, first compound 0.000316 µM) 0.15% | viability, T/C (second compound 3.16 µM, first compound 0.001 µM) 0.17% | viability, T/C [17] 0.15% | viability, T/C [18] 0.18% | viability, T/C [19] 0.12% | viability, T/C [20] 0.29% | viability, T/C (second compound 10 µM, first compound 0.000316 µM) 0.11% | viability, T/C (second compound 10 µM, first compound 0.001 µM) 0.2% | viability, T/C [21] 0.16% | viability, T/C [22] 0.18% | viability, T/C [23] 0.2% | viability, T/C [24] 0.2%
> 100 nM: IC50 (second compound 0.0316 µM)
< 0.316 nM: IC50 (second compound 0.316 µM) | IC50 (second compound 1 µM) | IC50 (second compound 3.16 µM) | IC50 (second compound 10 µM)
